Laboratory results from PubChem BioAssay (NCI).
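Compound exposure: 48 hours, 5 concentrations, 96-well plates. Here, GI50 denotes the concentration required for 50% inhibition of growth. TGI denotes the concentration required for complete inhibition of growth.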

Columns and labels:
Test in all cases: DTP human tumour cell line panel, 48 h
OVCAR-8 ovarian = test system: OVCAR-8 ovarian
HT29 colon = test system: HT29 colon
U251 CNS = test system: U251 CNS
SNB-75 CNS = test system: SNB-75 CNS
HOP-62 NSCLC = test system: HOP-62 NSCLC
IGROV1 ovarian = test system: IGROV1 ovarian
A498 renal = test system: A498 renal
ACHN renal = test system: ACHN renal
SK-MEL-5 melanoma = test system: SK-MEL-5 melanoma
A549 NSCLC = test system: A549 NSCLC

CNC(=O)Nc1ccccc1
TGI (OVCAR-8 ovarian): > 100 µM | TGI (HT29 colon): > 100 µM | TGI (U251 CNS): > 100 µM | TGI (SNB-75 CNS): > 100 µM | TGI (HOP-62 NSCLC): > 100 µM | TGI (IGROV1 ovarian): > 100 µM | TGI (A498 renal): > 100 µM | TGI (ACHN renal): > 100 µM | TGI (SK-MEL-5 melanoma): > 100 µM | TGI (A549 NSCLC): > 100 µM

Nc1nc(=O)n(CC(O)CO)s1 (centres undefined)
TGI (OVCAR-8 ovarian): > 100 µM | TGI (HT29 colon): > 100 µM | TGI (U251 CNS): > 100 µM | TGI (SNB-75 CNS): > 100 µM | TGI (HOP-62 NSCLC): > 100 µM | TGI (IGROV1 ovarian): > 100 µM | TGI (A498 renal): > 100 µM | TGI (ACHN renal): > 100 µM | TGI (SK-MEL-5 melanoma): > 100 µM | TGI (A549 NSCLC): > 100 µM

C[N+](C)(CCO)CCN1c2ccccc2Sc2ccccc21
TGI (OVCAR-8 ovarian): > 10 µM | TGI (HT29 colon): > 10 µM | TGI (U251 CNS): > 10 µM | TGI (SNB-75 CNS): > 10 µM | TGI (HOP-62 NSCLC): > 10 µM | TGI (IGROV1 ovarian): > 10 µM | TGI (A498 renal): > 10 µM | TGI (ACHN renal): > 10 µM | TGI (SK-MEL-5 melanoma): > 10 µM | TGI (A549 NSCLC): > 10 µM

CC(=O)C1=C(O)CCC1=O
TGI (OVCAR-8 ovarian): > 100 µM | TGI (HT29 colon): > 100 µM | TGI (U251 CNS): > 100 µM | TGI (SNB-75 CNS): > 100 µM | TGI (HOP-62 NSCLC): > 100 µM | TGI (IGROV1 ovarian): > 100 µM | TGI (ACHN renal): > 100 µM | TGI (SK-MEL-5 melanoma): > 100 µM | TGI (A549 NSCLC): > 100 µM

COc1cc2c(cc1OCCCN1CCN(c3ncnc4ccccc34)CC1)N=CC1CCCN1C2=O (centres undefined)
GI50 (OVCAR-8 ovarian): 0.043 µM | TGI (OVCAR-8 ovarian): > 53.6 µM | GI50 (HT29 colon): 0.0298 µM | GI50 (SNB-75 CNS): 0.0357 µM | TGI (SNB-75 CNS): 0.168 µM | GI50 (HOP-62 NSCLC): 0.0282 µM | TGI (HOP-62 NSCLC): 0.278 µM | GI50 (IGROV1 ovarian): 0.0126 µM | TGI (IGROV1 ovarian): 0.0269 µM | TGI (A498 renal): 0.0164 µM | GI50 (ACHN renal): 0.0426 µM | TGI (ACHN renal): 0.564 µM | GI50 (SK-MEL-5 melanoma): 0.0168 µM | TGI (SK-MEL-5 melanoma): 0.0323 µM | GI50 (A549 NSCLC): 0.0356 µM | TGI (A549 NSCLC): > 47.9 µM

C[C@]12CCC(=O)C=C1CC[C@@H]1[C@@H]2[C@@H](O)C[C@@]2(C)[C@H]1CC[C@]2(O)C(=O)COC(=O)C1CCCC1
TGI (OVCAR-8 ovarian): > 100 µM | TGI (HT29 colon): > 100 µM | TGI (U251 CNS): > 100 µM | TGI (SNB-75 CNS): > 100 µM | TGI (HOP-62 NSCLC): > 100 µM | TGI (IGROV1 ovarian): > 100 µM | TGI (A498 renal): > 100 µM | TGI (ACHN renal): > 100 µM | TGI (SK-MEL-5 melanoma): > 100 µM | TGI (A549 NSCLC): > 100 µM

O=C(NNC(=O)c1nsc2ccccc12)c1ccc(Cl)cc1
TGI (OVCAR-8 ovarian): 72.8 µM | TGI (HT29 colon): 41.8 µM | TGI (U251 CNS): 33.7 µM | TGI (SNB-75 CNS): 15.6 µM | TGI (HOP-62 NSCLC): 33.7 µM | TGI (IGROV1 ovarian): > 100 µM | TGI (ACHN renal): > 100 µM | TGI (SK-MEL-5 melanoma): 59.2 µM | TGI (A549 NSCLC): 45.9 µM

COc1ccc2nc3ccccc3c(NCc3ccc(C)cc3)c2c1
GI50 (OVCAR-8 ovarian): 2.24 µM | TGI (OVCAR-8 ovarian): 7.27 µM | GI50 (HT29 colon): 1.43 µM | TGI (HT29 colon): 7.16 µM | GI50 (U251 CNS): 1.84 µM | TGI (U251 CNS): 3.69 µM | GI50 (SNB-75 CNS): 1.49 µM | TGI (SNB-75 CNS): 2.85 µM | GI50 (HOP-62 NSCLC): 1.78 µM | TGI (HOP-62 NSCLC): 3.7 µM | GI50 (IGROV1 ovarian): 2.19 µM | TGI (IGROV1 ovarian): 6.34 µM | GI50 (A498 renal): 1.65 µM | TGI (A498 renal): 3.05 µM | GI50 (ACHN renal): 1.58 µM | TGI (ACHN renal): 3.03 µM | GI50 (SK-MEL-5 melanoma): 1.77 µM | TGI (SK-MEL-5 melanoma): 3.19 µM | GI50 (A549 NSCLC): 1.96 µM | TGI (A549 NSCLC): 4.71 µM

Cn1c(=O)c2c(nc(NCCNc3nc4c(c(=O)n(C)c(=O)n4C)n3C)n2C)n(C)c1=O
TGI (OVCAR-8 ovarian): > 100 µM | TGI (HT29 colon): > 100 µM | TGI (U251 CNS): > 100 µM | TGI (SNB-75 CNS): > 100 µM | TGI (HOP-62 NSCLC): > 100 µM | TGI (IGROV1 ovarian): > 100 µM | TGI (A498 renal): > 100 µM | TGI (ACHN renal): > 100 µM | TGI (SK-MEL-5 melanoma): > 100 µM | TGI (A549 NSCLC): > 100 µM

O=S(O)c1cc(Cl)cc(Cl)c1OCc1ccccc1
TGI (HT29 colon): > 100 µM | TGI (U251 CNS): > 100 µM | TGI (SNB-75 CNS): > 100 µM | TGI (HOP-62 NSCLC): > 100 µM | TGI (A498 renal): > 100 µM | TGI (ACHN renal): > 100 µM

COc1cc2c(cc1OC)-c1cc3ccc(OC)c(OC)c3c[n+]1CC2
TGI (OVCAR-8 ovarian): > 100 µM | TGI (HT29 colon): > 100 µM | TGI (U251 CNS): > 100 µM | TGI (SNB-75 CNS): > 100 µM | TGI (HOP-62 NSCLC): > 100 µM | TGI (IGROV1 ovarian): > 100 µM | TGI (ACHN renal): > 100 µM | TGI (SK-MEL-5 melanoma): > 100 µM | TGI (A549 NSCLC): > 100 µM
